Laboratory results as given in EP2601931A2, “Cosmetic use of 3-methyl-1-phenyl-5-pyrazolon” (Henkel AG&Co. KGAA, priority 2011, dated 2013).

Experiments:
Kollagen-Neusynthese = test: Collagen neosynthesis: P1NP secreted into the medium of a fibroblast / 3D epidermis model co-culture; assay type: cell-based; details: for P1NP: Co-Kultur-System, P1NP in medium, unbehandelt = 107
Description: Ein in der Kosmetik relevanter Parameter für die Anti-Aging-Leistung eines Produktes ist die Induktion der Kollagen-Neusynthese. […] Zum Nachweis der Kollagen-Neusynthese wurde ein Co-Kultur-System verwendet, das aus einer zweidimensionalen Fibroblasten-Kultur besteht, auf die in einem Insert ein dreidimensionales Epidermismodell aufgesetzt wurde. Über das Nährmedium kann ein Stoffaustausch zwischen den Fibroblasten und den Keratinocyten des Epidermismodells erfolgen. […] Als Kontrollen für die Syntheseinduktion wurden Retinsäure und Retinol eingesetzt.

CYP26A1 = test: RAMBA activity: change in CYP26A1 marker expression by qPCR in keratinocytes incubated with substance plus retinoic acid
Description: Verschiedene kosmetische Wirkstoffe, die zur Stoffklasse der Azole gerechnet werden können, wurden auf eine mögliche RAMBA-Aktivität hin untersucht. Zu diesem Zweck wurden humane Keratinocyaten für 16 Stunden mit den entsprechenden Substanzen in Kombination mit Retinsäure inkubiert und anschließend mittels qPCR die Expressionsänderung des Markers CYP26A1 verfolgt. Das Enzym CYP26A1 bewirkt die Metabolisierung der Retinsäure und wird durch die Retinsäure selber induziert, wodurch eine Feedbak-Regulation der Retinsäurekonzentration in der Zelle ermöglicht wird. […] Tabelle 1

With `CC1=NN(c2ccccc2)C(=O)C1` [3-Methyl-1-phenyl-5-pyrazolon] the P1NP (Kollagen-Neusynthese; 0,01%) was 129 µg/mL, the “Induktion der Kollagensynthese” value (Kollagen-Neusynthese; result in words on Tabelle 2) was “zeigen eine Induktion der Kollagensynthese” and the “Rel. Expression CYP26A1” value (CYP26A1; 0,01% in combination with Retinsäure (RA, 10nM), humane Keratinocyten, 16 Stunden, qPCR, ethanol control = 1,0) was 1,3. The RAMBA-Aktivität (CYP26A1; comparison with Ketokonazol, result in words on Tabelle 1) was “in etwa die gleiche RAMBA-Aktivität wie Ketokonazol” and the “Induktion von CYP26A1” value (CYP26A1; in combination with Retinsäure, result in words on Tabelle 1) was “deutlich vermindert”.

In the case of `CC1=C(/C=C/C(C)=C/C=C/C(C)=C/CO)C(C)(C)CCC1` [Retinol, reference compound], the P1NP (Kollagen-Neusynthese; 5µM) is reported as 146 µg/mL.

For `CC1=C(/C=C/C(C)=C/C=C/C(C)=C/C(=O)O)C(C)(C)CCC1` [Retinsäure, reference compound], the P1NP (Kollagen-Neusynthese; 5µM) was 200 µg/mL and the “Rel. Expression CYP26A1” value (CYP26A1; keratinocytes, 16 h, 0.01 µM) was 37,6.
